37 compounds from US12319708B2, “Agonists of peroxisome proliferator-activated receptor alpha (PPARα) and methods of use” (The Board of Regents of the University of Oklahoma, priority 2018, dated 2025) can be followed below.

For this assay, the target named is T1, hPPARα (Homo sapiens, UniProt Q07869).
T1 sequence (Q07869 1-468): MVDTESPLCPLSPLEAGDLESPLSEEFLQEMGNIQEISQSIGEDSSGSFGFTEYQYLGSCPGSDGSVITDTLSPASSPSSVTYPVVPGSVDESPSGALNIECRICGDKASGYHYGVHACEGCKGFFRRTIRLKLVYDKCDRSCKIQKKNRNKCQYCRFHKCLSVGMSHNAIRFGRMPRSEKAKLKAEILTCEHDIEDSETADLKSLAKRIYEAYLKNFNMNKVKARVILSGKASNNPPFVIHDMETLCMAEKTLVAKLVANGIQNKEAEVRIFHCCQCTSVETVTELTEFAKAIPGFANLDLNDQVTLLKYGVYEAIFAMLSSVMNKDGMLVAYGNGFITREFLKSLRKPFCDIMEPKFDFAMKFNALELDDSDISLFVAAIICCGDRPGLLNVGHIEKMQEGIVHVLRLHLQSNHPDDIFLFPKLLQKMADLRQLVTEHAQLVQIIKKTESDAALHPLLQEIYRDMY
The assay can be described thus: PPARα luciferase cell reporter assay (Indigo Biosciences). The format is cell-based. As to conditions: for ratio (5/50): ratio of relative light unit (RLU) signal at 5 and 50 μM: 5 and 50 μM compound concentrations; for fold-signal: ratio of maximal signal strength to that obtained with GW590735: relative to GW590735. An excerpt:
With the focused subset of analogs in-hand, our efforts shifted to the evaluation of these derivatives for PPARα agonism. Preliminary evaluation utilized a commercially available PPARα luciferase cell reporter assay (Indigo Biosciences). The cell-line employed is engineered to constitutively express high-levels of hPPARα. Upon interaction with an agonist, hPPARα translocates to the nucleus, binds to the PPRE, and upregulates gene transcription, including the inserted luciferase gene. Luciferase activity is detected indirectly through quantification of oxyluciferin production.

[1] abbreviates: mean ± SEM of at least two separate experiments in triplicate (Table 9), read-out: EC50 hPPARα.
[2] abbreviates: structure IIa compounds (Table 6).
The mark [3] stands for this setting: Table 6, cellular luciferase activity, read-out: α EC50.
Setting [4] is: structure IIb compounds (Table 8).

Like-named read-outs stand apart in the source and are kept apart here.

As to `Cc1cc(CNc2cccc(C(=O)O)c2)ccc1OCc1cc(F)cc(F)c1` [25′], the “ratio (5/50): ratio of relative light unit (RLU) signal at 5 and 50 μM” value is 1.1; the “fold-signal: ratio of maximal signal strength to that obtained with GW590735” value (shortened to “fold-signal: ratio”) was 1.6.

Consider `O=C(O)c1cccc(NCc2ccc(OCc3ccc(F)cc3)c(F)c2)c1` [26′], for which the “ratio (5/50): ratio of relative light unit (RLU) signal at 5 and 50 μM” value was found to be 0.7; the “fold-signal: ratio” value stood at 1.7.

With `O=C(O)c1cccc(NCc2ccc(OCc3ccc(F)cc3)c(Cl)c2)c1` [27′], the “ratio (5/50): ratio of relative light unit (RLU) signal at 5 and 50 μM” value is reported as 1.1; the “fold-signal: ratio” value is 1.5.

With `Cc1cc(CN(C)c2cccc(C(=O)O)c2)ccc1OCc1ccc(F)cc1` [30′], the “ratio (5/50): ratio of relative light unit (RLU) signal at 5 and 50 μM” value is recorded as 0.8; the “fold-signal: ratio” value is listed as 2.1. For the same compound, the EC50 under setting [1] was 0.067 ± 0.01 µM.

For the compound `O=C(O)c1cc(F)cc(NCc2ccc(OCc3ccc(F)cc3)c(Cl)c2)c1` [32′], the “ratio (5/50): ratio of relative light unit (RLU) signal at 5 and 50 μM” value came out at 1.1; the “fold-signal: ratio” value is 1.8. Under setting [1], the EC50 is 0.052 ± 0.011 µM.

`COc1ccc(COc2ccc(CNc3cccc(B(O)O)c3)cc2)cc1` [Compound 110]: under setting [2], the “Fold (5 μM): fold increase in luciferase compared to DMSO negative control” value (from here on “Fold (5 μM): fold increase in luciferase”) was found to be 1 fold and the “Fold (50 μM): fold increase in luciferase compared to DMSO negative control” value (from here on “Fold (50 μM): fold increase”) was 1 fold.

On to `CC(C)(Oc1cccc(NCc2ccc(OCc3ccccc3)cc2)c1)C(=O)O` [Compound 116], for which, under setting [2], the “Fold (5 μM): fold increase in luciferase” value amounted to 1 fold and the “Fold (50 μM): fold increase” value is given as 46 fold.

Consider `O=C(O)c1cccc(NCc2ccc(OCc3ccccc3)cc2)c1` [Compound 117], for which, under setting [2], the “Fold (5 μM): fold increase in luciferase” value stood at 18 fold and the “Fold (50 μM): fold increase” value is given as 35 fold.

For the compound `O=C(O)c1cccc(NCc2ccc(OCc3ccc(Cl)cc3Cl)cc2)c1` [Compound 118], under setting [2], the “Fold (5 μM): fold increase in luciferase” value is 1 fold and the “Fold (50 μM): fold increase” value was determined as 37 fold.

In the case of `O=C(O)c1cccc(NCc2ccc(OCc3cc(F)cc(F)c3)cc2)c1` [Compound 119], under setting [2], the “Fold (5 μM): fold increase in luciferase” value was determined as 9 fold and the “Fold (50 μM): fold increase” value turned out to be 35 fold.

As for `O=C(O)c1cccc(NCc2ccc(OCc3ccc([N+](=O)[O-])cc3)cc2)c1` [Compound 120], under setting [2], the “Fold (5 μM): fold increase in luciferase” value turned out to be 16 fold and the “Fold (50 μM): fold increase” value was 35 fold.

On to `CC(C)(Oc1cccc(NCc2ccc(OCc3cc(F)cc(F)c3)cc2)c1)C(=O)O` [Compound 121], for which, under setting [2], the “Fold (5 μM): fold increase in luciferase” value was determined as 16 fold and the “Fold (50 μM): fold increase” value was found to be 42 fold.

As to `O=C(O)c1cccc(NCc2ccc(OCc3ccc(Cl)cc3)cc2)c1` [Compound 122], under setting [2], the “Fold (5 μM): fold increase in luciferase” value is on record as 17 fold and the “Fold (50 μM): fold increase” value was determined as 36 fold.

Take `CC(C)(Oc1cccc(NCc2ccc(OCc3ccc(Cl)cc3)cc2)c1)C(=O)O` [Compound 123]: under setting [2], the “Fold (5 μM): fold increase in luciferase” value is recorded as 2 fold and the “Fold (50 μM): fold increase” value stood at 55 fold.

Take `O=C(O)c1cccc(NCc2ccc(OCc3ccc(C(F)(F)F)cc3)cc2)c1` [Compound 126]: under setting [2], the “Fold (5 μM): fold increase in luciferase” value is 81 fold and the “Fold (50 μM): fold increase” value worked out at 100 fold. The concentration for a half-maximal effect (EC50) under setting [3] came out at 0.8 µM.

Regarding `CC(C)(Oc1cccc(NCc2ccc(OCc3ccc(F)cc3)cc2)c1)C(=O)O` [Compound 127], under setting [2], the “Fold (5 μM): fold increase in luciferase” value was determined as 11 fold and the “Fold (50 μM): fold increase” value was 150 fold.

For `CC(C)(Oc1cccc(NCc2ccc(OCc3ccc(C(F)(F)F)cc3)cc2)c1)C(=O)O` [Compound 128], under setting [2], the “Fold (5 μM): fold increase in luciferase” value is reported as 19 fold and the “Fold (50 μM): fold increase” value came to 106 fold.

For the compound `O=C(O)COc1cccc(NCc2ccc(OCc3ccc(C(F)(F)F)cc3)cc2)c1` [Compound 129], under setting [2], the “Fold (5 μM): fold increase in luciferase” value is given as 2 fold and the “Fold (50 μM): fold increase” value is on record as 112 fold.

As for `COc1ccc(COc2ccc(CNc3cccc(OCC(=O)O)c3)cc2)cc1` [Compound 130], under setting [2], the “Fold (5 μM): fold increase in luciferase” value is 2 fold and the “Fold (50 μM): fold increase” value amounted to 43 fold. Also, the half-maximal effective concentration (EC50) under setting [3] was 29.2 µM.

Turning to `O=C(O)c1cccc(NCCc2ccc(OCCc3ccccc3)cc2)c1` [Compound 133], under setting [2], the “Fold (5 μM): fold increase in luciferase” value was determined as 1 fold and the “Fold (50 μM): fold increase” value came to 0 fold.

For the compound `COc1ccc(COc2ccc(CNc3cccc(C(=O)NO)c3)cc2)cc1` [Compound 134], under setting [2], the “Fold (5 μM): fold increase in luciferase” value amounted to 3 fold and the “Fold (50 μM): fold increase” value is listed as 9 fold.

Turning to `CS(=O)(=O)Nc1cccc(NCc2ccc(OCc3ccc(F)cc3)cc2)c1` [Compound 145], under setting [2], the “Fold (5 μM): fold increase in luciferase” value amounted to 3 fold and the “Fold (50 μM): fold increase” value turned out to be 5 fold.

Take `O=C(NO)c1cccc(NCc2ccc(OCc3ccc(F)cc3)cc2)c1` [Compound 146]: under setting [2], the “Fold (5 μM): fold increase in luciferase” value turned out to be 34 fold and the “Fold (50 μM): fold increase” value stood at 53 fold.

With `NS(=O)(=O)c1cccc(NCc2ccc(OCc3ccc(F)cc3)cc2)c1` [Compound 147], under setting [2], the “Fold (5 μM): fold increase in luciferase” value was 3 fold and the “Fold (50 μM): fold increase” value is recorded as 3 fold.

With `Fc1ccc(COc2ccc(CNc3cccc(-c4nnn[nH]4)c3)cc2)cc1` [Compound 148], under setting [2], the “Fold (5 μM): fold increase in luciferase” value was 73 fold and the “Fold (50 μM): fold increase” value was 85 fold. Also, the EC50 under setting [3] was 5.7 µM.

With `CN(Cc1ccc(OCc2ccc(F)cc2)cc1)c1cccc(C(=O)O)c1` [Compound 151], under setting [2], the “Fold (5 μM): fold increase in luciferase” value was 102 fold and the “Fold (50 μM): fold increase” value turned out to be 109 fold. Also, under setting [3], the EC50 was 1 µM.

In the case of `CN(Cc1ccc(OCc2ccc(F)cc2)cc1)c1cccc(OC(C)(C)C(=O)O)c1` [Compound 153], under setting [2], the “Fold (5 μM): fold increase in luciferase” value was 94 fold and the “Fold (50 μM): fold increase” value stood at 120 fold. In addition, the EC50 under setting [3] was found to be 1.7 µM.

Regarding `OB(O)c1cccc(NCc2ccc(OCc3ccc(F)cc3)cc2)c1` [Compound 154], under setting [2], the “Fold (5 μM): fold increase in luciferase” value is given as 3 fold and the “Fold (50 μM): fold increase” value was 2 fold.

In the case of `O=C(O)c1ccc(NCc2ccc(OCc3ccc(C(F)(F)F)cc3)cc2)cc1` [Compound 155], under setting [4], the “Fold (5 μM): fold increase in luciferase” value is 4 fold and the “Fold (50 μM): fold increase” value came to 8 fold.

On to `COc1ccc(COc2ccc(CNc3ccc(C(=O)O)cc3)cc2)cc1` [Compound 162], for which, under setting [4], the “Fold (5 μM): fold increase in luciferase” value is recorded as 4 fold and the “Fold (50 μM): fold increase” value came out at 29 fold.

For the compound `O=C(O)c1cc(Cl)cc(NCc2ccc(OCc3ccc(F)cc3)cc2)c1` [Compound 168], under setting [2], the “Fold (5 μM): fold increase in luciferase” value is listed as 18 fold and the “Fold (50 μM): fold increase” value is 93 fold.

For the compound `CC(C)(Oc1ccc(NCc2ccc(OCc3ccc(F)cc3)cc2)cc1)C(=O)O` [Compound 182], under setting [4], the “Fold (5 μM): fold increase in luciferase” value amounted to 40 fold and the “Fold (50 μM): fold increase” value is listed as 74 fold.

In the case of `O=C(O)c1ccc(NCc2ccc(OCc3ccc(F)cc3)cc2)cc1` [Compound 183], under setting [4], the “Fold (5 μM): fold increase in luciferase” value amounted to 4 fold and the “Fold (50 μM): fold increase” value worked out at 14 fold.

As to `O=C(O)c1cc(Br)cc(NCc2ccc(OCc3ccc(F)cc3)cc2)c1` [Compound 184], under setting [2], the “Fold (5 μM): fold increase in luciferase” value turned out to be 59 fold and the “Fold (50 μM): fold increase” value turned out to be 69 fold. In addition, the EC50 under setting [3] was determined as 0.9 µM.

As to `O=C(O)c1cc(F)cc(NCc2ccc(OCc3ccc(F)cc3)cc2)c1` [Compound 185], under setting [2], the “Fold (5 μM): fold increase in luciferase” value was found to be 61 fold and the “Fold (50 μM): fold increase” value came out at 66 fold. Besides, the EC50 under setting [3] stood at 0.7 µM.

Consider `COc1ccc(CCOc2ccc(CCNc3cccc(C(=O)O)c3)cc2)cc1` [Compound 187], for which, under setting [2], the “Fold (5 μM): fold increase in luciferase” value turned out to be 1 fold and the “Fold (50 μM): fold increase” value was determined as 0 fold.

With `CC(C)(Sc1cccc(NCc2ccc(OCc3ccc(F)cc3)cc2)c1)C(=O)O` [Compound 188], under setting [2], the “Fold (5 μM): fold increase in luciferase” value was 10 fold and the “Fold (50 μM): fold increase” value turned out to be 45 fold.
